Values quoted from earlier work, collected in patent publication US20190154648A1, “METHODS OF ATTENUATING DRUG EXCIPIENT CROSS REACTIVITY” (Chesapeake Therapeutics, LLC, priority 2016, published 2019).
Structures can show the parent of a compound that is named as a salt.

Tests used:
[1] = in vivo

## OCCOCCN1CCN(C2=Nc3ccccc3Sc3ccccc32)CC1 [quetiapine fumarate]
[1]
  single-dose toxicity: low
Nonhuman primates
  mechanistically unexplainable side effects in repeat-dose toxicity studies: pigmentation of the thyroid, transient increases in heart rate, posterior triangular cataracts, and reduced lymphocyte count
